# According to patent US12251382B2, “Substituted amino-pyrimidine compound for use in a method for treatment and prevention of multiple sclerosis” (Merck Patent GmbH, priority 2018, dated 2025):
# Tests used:
# [1] = Phase II RMS study: safety (adverse events, laboratory) over 24 weeks; assay type: in vivo
# Procedure: The assessing Investigator and central MRI reader were treatment blinded.
# Safety profile of the IMP was assessed through the recording, reporting and analysis of baseline medical conditions; AEs; physical examination findings including vital signs, ECGs, and laboratory tests (including Ig and subclass concentration and B, NK, and T cell counts). Comprehensive assessment of any apparent toxicity experienced by each subject was performed from the time of giving informed consent and throughout the trial. The Investigator was to report any AEs, whether observed by the Investigator or reported by the subject.
# Adverse Event: An AE was any untoward medical occurrence in a subject or clinical investigation subject administered a pharmaceutical product, regardless of causal relationship with this treatment. An AE could therefore be any unfavorable and unintended sign (including an abnormal laboratory finding), symptom, or disease temporally associated with the use of a medicinal product, whether or not considered related to the medicinal product.
# The Investigator was required to grade the severity or toxicity of each AE. Investigators referenced the National Cancer Institute-Common Terminology Criteria for AEs (NCI-CTCAE), Version 4.03 (publication date: 14 Jun. 2010) a descriptive terminology provided in the Manual of Procedures that can be used for AE reporting.
# A general grading (severity/intensity; hereafter referred to as severity) scale was provided at the beginning of the above referenced document, and specific event grades were also provided. Only if a particular AE's severity was not specifically graded by the guidance document, then the Investigator was to use the general NCI-CTCAE definitions of Grade 1 through Grade 5 following his or her best medical judgment. The 5 general grades are: • Grade 1 or Mild • Grade 2 or Moderate • Grade 3 or Severe • Grade 4 or Life-threatening • Grade 5 or Death.
# Serious Adverse Events: An SAE is any untoward medical occurrence that at any dose: • Results in death. • Is life-threatening. (Note: The term “life-threatening” refers to an event in which the subject is at risk of death at the time of the event, not an event that hypothetically might have caused death if it was more severe) • Requires inpatient hospitalization or prolongs an existing hospitalization, except in the case of hospitalizations due to protocol-defined relapses. • Results in persistent or significant disability or incapacity. • Is a congenital anomaly or birth defect. • Is otherwise considered to be medically important.
# [2] = system: B- and T-cell-mediated EAE mouse models; details: cited from earlier work
structure (smiles),measurement,setting,value
"C=CC(=O)N1CCC(CNc2ncnc(N)c2-c2ccc(Oc3ccccc3)cc2)CC1 [Evobrutinib, 1-(4-(((6-amino-5-(4-phenoxyphenyl)pyrimidin-4-yl)amino)methyl)piperidin-1-yl)prop-2-en-1-one]",Deaths or additional emerging safety signals,[1]; 24 weeks,no deaths or additional emerging safety signals
same,TEAEs of grade 4 or 5,"[1]; human, in vivo, 24 weeks",no TEAEs of grade 4 or 5
same,"Hematological abnormalities, such as lymphopenia",[1]; in vivo,"None of the three evobrutinib doses were associated with hematological abnormalities, such as lymphopenia"
same,Hy's Law cases among Grade 3 transaminase elevations,[1]; in vivo,no Hy's Law cases
same,Infection rates versus placebo,[1]; in vivo,lower than those with placebo
same,"CNS inflammation, demyelination and disease severity (clinical scoring)",[2],potential to reduce CNS inflammation and demyelination and ameliorate disease severity
